In PubChem BioAssay AID2060891 (Molecular Pharmacology Branch, DTP, NCI, 2025):

Test system: K98450-129-R-PDC complex spheroid growth, percent test/control
Experiment: Anticancer human tumor K98450-129-R-PDC patient-derived colon adenocarcinoma cell line growth inhibition [RAS]
Conditions: second compound 1 µM; first compound 0.00316 µM; active compounds read low
Outline: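 Agents were tested in combination matrices in half-log decrements from a top concentration at or near clinical Cmax (10 microM if undetermined). Targets were multi-cell spheroids of tumour lines plus HUVEC and MSC stromal cells.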
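Note: luminescence used as a proxy for viable cell amount; spheroids exposed to agents for seven days before the viability readout.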

Row | Structure (SMILES) | viability, T/C [%]
1 | CCN1CCN(Cc2ccc(Nc3ncc(F)c(-c4cc(F)c5nc(C)n(C(C)C)c5c4)n3)nc2)CC1 + C=CC(=O)N1CCN(c2nc(OCC3CCCN3C)nc3c(F)c(-c4nc(N)cc(C)c4C(F)(F)F)c(Cl)cc23)C(C)C1 | 31.8

Same assay, conditions: second compound 1 µM; first compound 0.01 µM; active compounds read low

Row | Structure (SMILES) | viability, T/C [%]
2 | CC(C)n1nc(-c2ccc3oc(N)nc3c2)c2c(N)ncnc21 + C=CC(=O)N1CCN(c2nc(OCC3CCCN3C)nc3c(F)c(-c4nc(N)cc(C)c4C(F)(F)F)c(Cl)cc23)C(C)C1 | 25
3 | CCN1CCN(Cc2ccc(Nc3ncc(F)c(-c4cc(F)c5nc(C)n(C(C)C)c5c4)n3)nc2)CC1 + C=CC(=O)N1CCN(c2nc(OCC3CCCN3C)nc3c(F)c(-c4nc(N)cc(C)c4C(F)(F)F)c(Cl)cc23)C(C)C1 | 32.1

Same assay, conditions: second compound 1 µM; first compound 0.0316 µM; active compounds read low

Row | Structure (SMILES) | viability, T/C [%]
4 | CC(C)NCC(C(=O)N1CCN(c2ncnc3c2C(C)CC3O)CC1)c1ccc(Cl)cc1 (configuration not stated) + C=CC(=O)N1CCN(c2nc(OCC3CCCN3C)nc3c(F)c(-c4nc(N)cc(C)c4C(F)(F)F)c(Cl)cc23)C(C)C1 | 31.4
5 | CC(C)n1nc(-c2ccc3oc(N)nc3c2)c2c(N)ncnc21 + C=CC(=O)N1CCN(c2nc(OCC3CCCN3C)nc3c(F)c(-c4nc(N)cc(C)c4C(F)(F)F)c(Cl)cc23)C(C)C1 | 21.4
6 | CC1(O)CCCC1n1c(=O)c(C(F)F)cc2cnc(NC3CCN(S(C)(=O)=O)CC3)nc21 (configuration not stated) + C=CC(=O)N1CCN(c2nc(OCC3CCCN3C)nc3c(F)c(-c4nc(N)cc(C)c4C(F)(F)F)c(Cl)cc23)C(C)C1 | 31.7
7 | CCN1CCN(Cc2ccc(Nc3ncc(F)c(-c4cc(F)c5nc(C)n(C(C)C)c5c4)n3)nc2)CC1 + C=CC(=O)N1CCN(c2nc(OCC3CCCN3C)nc3c(F)c(-c4nc(N)cc(C)c4C(F)(F)F)c(Cl)cc23)C(C)C1 | 28.7
8 | C[C@@H](NC(=O)c1ncnc(N)c1Cl)c1ncc(C(=O)Nc2cc(C(F)(F)F)c(Cl)cn2)s1 + C=CC(=O)N1CCN(c2nc(OCC3CCCN3C)nc3c(F)c(-c4nc(N)cc(C)c4C(F)(F)F)c(Cl)cc23)C(C)C1 | 37.1

Same assay, conditions: second compound 1 µM; first compound 0.1 µM; active compounds read low

Row | Structure (SMILES) | viability, T/C [%]
9 | CC(C)NCC(C(=O)N1CCN(c2ncnc3c2C(C)CC3O)CC1)c1ccc(Cl)cc1 (configuration not stated) + C=CC(=O)N1CCN(c2nc(OCC3CCCN3C)nc3c(F)c(-c4nc(N)cc(C)c4C(F)(F)F)c(Cl)cc23)C(C)C1 | 32.7
10 | CC(C)n1nc(-c2ccc3oc(N)nc3c2)c2c(N)ncnc21 + C=CC(=O)N1CCN(c2nc(OCC3CCCN3C)nc3c(F)c(-c4nc(N)cc(C)c4C(F)(F)F)c(Cl)cc23)C(C)C1 | 17.6
11 | CC1(O)CCCC1n1c(=O)c(C(F)F)cc2cnc(NC3CCN(S(C)(=O)=O)CC3)nc21 (configuration not stated) + C=CC(=O)N1CCN(c2nc(OCC3CCCN3C)nc3c(F)c(-c4nc(N)cc(C)c4C(F)(F)F)c(Cl)cc23)C(C)C1 | 33.7
12 | CCN1CCN(Cc2ccc(Nc3ncc(F)c(-c4cc(F)c5nc(C)n(C(C)C)c5c4)n3)nc2)CC1 + C=CC(=O)N1CCN(c2nc(OCC3CCCN3C)nc3c(F)c(-c4nc(N)cc(C)c4C(F)(F)F)c(Cl)cc23)C(C)C1 | 24.3
13 | C[C@@H](NC(=O)c1ncnc(N)c1Cl)c1ncc(C(=O)Nc2cc(C(F)(F)F)c(Cl)cn2)s1 + C=CC(=O)N1CCN(c2nc(OCC3CCCN3C)nc3c(F)c(-c4nc(N)cc(C)c4C(F)(F)F)c(Cl)cc23)C(C)C1 | 41.3

Same assay, conditions: second compound 1 µM; first compound 0.316 µM; active compounds read low

Row | Structure (SMILES) | viability, T/C [%]
14 | CC(C)NCC(C(=O)N1CCN(c2ncnc3c2C(C)CC3O)CC1)c1ccc(Cl)cc1 (configuration not stated) + C=CC(=O)N1CCN(c2nc(OCC3CCCN3C)nc3c(F)c(-c4nc(N)cc(C)c4C(F)(F)F)c(Cl)cc23)C(C)C1 | 35.9
15 | CC1(O)CCCC1n1c(=O)c(C(F)F)cc2cnc(NC3CCN(S(C)(=O)=O)CC3)nc21 (configuration not stated) + C=CC(=O)N1CCN(c2nc(OCC3CCCN3C)nc3c(F)c(-c4nc(N)cc(C)c4C(F)(F)F)c(Cl)cc23)C(C)C1 | 26.6
16 | CCN1CCN(Cc2ccc(Nc3ncc(F)c(-c4cc(F)c5nc(C)n(C(C)C)c5c4)n3)nc2)CC1 + C=CC(=O)N1CCN(c2nc(OCC3CCCN3C)nc3c(F)c(-c4nc(N)cc(C)c4C(F)(F)F)c(Cl)cc23)C(C)C1 | 24.6
17 | C[C@@H](NC(=O)c1ncnc(N)c1Cl)c1ncc(C(=O)Nc2cc(C(F)(F)F)c(Cl)cn2)s1 + C=CC(=O)N1CCN(c2nc(OCC3CCCN3C)nc3c(F)c(-c4nc(N)cc(C)c4C(F)(F)F)c(Cl)cc23)C(C)C1 | 44.6

Same assay, conditions: second compound 1 µM; first compound 1 µM; active compounds read low

Row | Structure (SMILES) | viability, T/C [%]
18 | CC(C)NCC(C(=O)N1CCN(c2ncnc3c2C(C)CC3O)CC1)c1ccc(Cl)cc1 (configuration not stated) + C=CC(=O)N1CCN(c2nc(OCC3CCCN3C)nc3c(F)c(-c4nc(N)cc(C)c4C(F)(F)F)c(Cl)cc23)C(C)C1 | 32.1
19 | CC1(O)CCCC1n1c(=O)c(C(F)F)cc2cnc(NC3CCN(S(C)(=O)=O)CC3)nc21 (configuration not stated) + C=CC(=O)N1CCN(c2nc(OCC3CCCN3C)nc3c(F)c(-c4nc(N)cc(C)c4C(F)(F)F)c(Cl)cc23)C(C)C1 | 21
20 | CCN1CCN(Cc2ccc(Nc3ncc(F)c(-c4cc(F)c5nc(C)n(C(C)C)c5c4)n3)nc2)CC1 + C=CC(=O)N1CCN(c2nc(OCC3CCCN3C)nc3c(F)c(-c4nc(N)cc(C)c4C(F)(F)F)c(Cl)cc23)C(C)C1 | 29.2
21 | C[C@@H](NC(=O)c1ncnc(N)c1Cl)c1ncc(C(=O)Nc2cc(C(F)(F)F)c(Cl)cn2)s1 + C=CC(=O)N1CCN(c2nc(OCC3CCCN3C)nc3c(F)c(-c4nc(N)cc(C)c4C(F)(F)F)c(Cl)cc23)C(C)C1 | 44.6

Same assay, conditions: second compound 1 µM; first compound 3.16 µM; active compounds read low

Row | Structure (SMILES) | viability, T/C [%]
22 | CC(C)NCC(C(=O)N1CCN(c2ncnc3c2C(C)CC3O)CC1)c1ccc(Cl)cc1 (configuration not stated) + C=CC(=O)N1CCN(c2nc(OCC3CCCN3C)nc3c(F)c(-c4nc(N)cc(C)c4C(F)(F)F)c(Cl)cc23)C(C)C1 | 32.7
23 | CC1(O)CCCC1n1c(=O)c(C(F)F)cc2cnc(NC3CCN(S(C)(=O)=O)CC3)nc21 (configuration not stated) + C=CC(=O)N1CCN(c2nc(OCC3CCCN3C)nc3c(F)c(-c4nc(N)cc(C)c4C(F)(F)F)c(Cl)cc23)C(C)C1 | 19.4
24 | C[C@@H](NC(=O)c1ncnc(N)c1Cl)c1ncc(C(=O)Nc2cc(C(F)(F)F)c(Cl)cn2)s1 + C=CC(=O)N1CCN(c2nc(OCC3CCCN3C)nc3c(F)c(-c4nc(N)cc(C)c4C(F)(F)F)c(Cl)cc23)C(C)C1 | 49.7

Same assay, conditions: second compound 1 µM; first compound 10 µM; active compounds read low

Row | Structure (SMILES) | viability, T/C [%]
25 | CC(C)NCC(C(=O)N1CCN(c2ncnc3c2C(C)CC3O)CC1)c1ccc(Cl)cc1 (configuration not stated) + C=CC(=O)N1CCN(c2nc(OCC3CCCN3C)nc3c(F)c(-c4nc(N)cc(C)c4C(F)(F)F)c(Cl)cc23)C(C)C1 | 29
26 | CC1(O)CCCC1n1c(=O)c(C(F)F)cc2cnc(NC3CCN(S(C)(=O)=O)CC3)nc21 (configuration not stated) + C=CC(=O)N1CCN(c2nc(OCC3CCCN3C)nc3c(F)c(-c4nc(N)cc(C)c4C(F)(F)F)c(Cl)cc23)C(C)C1 | 16.1
27 | C[C@@H](NC(=O)c1ncnc(N)c1Cl)c1ncc(C(=O)Nc2cc(C(F)(F)F)c(Cl)cn2)s1 + C=CC(=O)N1CCN(c2nc(OCC3CCCN3C)nc3c(F)c(-c4nc(N)cc(C)c4C(F)(F)F)c(Cl)cc23)C(C)C1 | 43.5
